In PubChem BioAssay AID248 (DTP/NCI, 2004):
“And” between values parts separate entries of the source, which are not always exact repeats. Identical values can stand only once. Toxic doses and inconclusive results are not listed. Rule as the data show it: active = T/C of 150% or more; inactive = T/C below 125%.

System: L1210 leukemia ip in BDF1 mice, survival T/C
Assay: NCI In Vivo Anticancer Drug Screen. Data for tumor model L1210 Leukemia (intraperitoneal) in B6D2F1 (BDF1) mice
Settings: endpoint: mean survival time, higher = longer survival
In short: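 Survival endpoint. Drug-treated group vs vehicle group, expressed as T divided by C. Tumor passaged by transplantation.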

[1] = dose: 100.0 mg/kg/injection, schedule: Q01DX001 (ip), vehicle: saline with Tween-80
[2] = dose: 200.0 mg/kg/injection, schedule: Q01DX001 (ip), vehicle: saline with Tween-80
[3] = dose: 400.0 mg/kg/injection, schedule: Q01DX001 (ip), vehicle: saline with Tween-80
[4] = dose: 100.0 mg/kg/injection, schedule: Q04DX003 (ip), vehicle: saline
[5] = dose: 100.0 mg/kg/injection, schedule: Q01DX001 (ip), vehicle: Klucel (hydroxypropylcellulose) (HPC)
[6] = dose: 200.0 mg/kg/injection, schedule: Q01DX001 (ip), vehicle: Klucel (hydroxypropylcellulose) (HPC)
[7] = dose: 400.0 mg/kg/injection, schedule: Q01DX001 (ip), vehicle: Klucel (hydroxypropylcellulose) (HPC)
[8] = dose: 100.0 mg/kg/injection, schedule: Q04DX003 (ip), vehicle: saline with Tween-80
[9] = dose: 200.0 mg/kg/injection, schedule: Q04DX003 (ip), vehicle: saline with Tween-80
[10] = dose: 400.0 mg/kg/injection, schedule: Q04DX003 (ip), vehicle: saline with Tween-80
[11] = dose: 100.0 mg/kg/injection, schedule: Q01DX009 (ip), vehicle: Klucel (hydroxypropylcellulose) (HPC)
[12] = dose: 100.0 mg/kg/injection, schedule: Q04DX003 (ip), vehicle: Klucel (hydroxypropylcellulose) (HPC)
[13] = dose: 200.0 mg/kg/injection, schedule: Q01DX009 (ip), vehicle: Klucel (hydroxypropylcellulose) (HPC)
[14] = dose: 200.0 mg/kg/injection, schedule: Q04DX003 (ip), vehicle: Klucel (hydroxypropylcellulose) (HPC)
[15] = dose: 400.0 mg/kg/injection, schedule: Q01DX009 (ip), vehicle: Klucel (hydroxypropylcellulose) (HPC)
[16] = dose: 400.0 mg/kg/injection, schedule: Q04DX003 (ip), vehicle: Klucel (hydroxypropylcellulose) (HPC)
[17] = dose: 100.0 mg/kg/injection, schedule: Q01DX001 (ip), vehicle: saline
[18] = dose: 200.0 mg/kg/injection, schedule: Q01DX001 (ip), vehicle: saline
[19] = dose: 100.0 mg/kg/injection, schedule: Q01DX009 (ip), vehicle: saline with Tween-80
[20] = dose: 400.0 mg/kg/injection, schedule: Q01DX009 (ip), vehicle: saline with Tween-80
[21] = dose: 200.0 mg/kg/injection, schedule: Q01DX009 (ip), vehicle: saline with Tween-80

Measured: T/C

c1cc(-c2ccc(C3=NCCN3)cc2)ccc1C1=NCCN1
inactive: dose: 15.0 mg/kg/injection, schedule: Q01DX Z (ip), vehicle: saline 104 % of control | dose: 30.0 mg/kg/injection, schedule: Q01DX Z (ip), vehicle: saline 104 % of control | dose: 60.0 mg/kg/injection, schedule: Q01DX Z (ip), vehicle: saline 87 % of control

O=c1ccc2cc3ccc(=O)oc3cc2o1
inactive: [1] 97 % of control | [2] 97 % of control | [3] 87 % of control

OC(c1ccccc1)(c1ccccc1)c1nc2ccccc2[nH]1
inactive: dose: 75.0 mg/kg/injection, schedule: Q01DX009 (ip), vehicle: Klucel (hydroxypropylcellulose) (HPC) 97 % of control | dose: 150.0 mg/kg/injection, schedule: Q01DX009 (ip), vehicle: Klucel (hydroxypropylcellulose) (HPC) 87 % of control | dose: 300.0 mg/kg/injection, schedule: Q01DX009 (ip), vehicle: Klucel (hydroxypropylcellulose) (HPC) 104 % of control

O=C1CCC(N2C(=O)C3CCCCC3C2=O)C(=O)N1 (stereo not drawn)
inactive: [4] 97 % of control | dose: 200.0 mg/kg/injection, schedule: Q04DX003 (ip), vehicle: saline 93 % of control | dose: 400.0 mg/kg/injection, schedule: Q04DX003 (ip), vehicle: saline 101 % of control

O=C1OCC(CN2CC3CCC(CC3)C2)=C1c1ccccc1
inactive: [5] 94 % of control | [6] 102 % of control | [7] 94 % of control

CCCCCCCCCCCC(=O)Nc1ccccc1C(F)(F)F
inactive: dose: 100.0 mg/kg/injection, schedule: Q01DX009 (ip), vehicle: acetone 96 % of control | dose: 200.0 mg/kg/injection, schedule: Q01DX009 (ip), vehicle: acetone 95 % of control | dose: 400.0 mg/kg/injection, schedule: Q01DX009 (ip), vehicle: acetone 94 % of control

CC(=O)Nc1cccc2c1CCCC2
inactive: dose: 100.0 mg/kg/injection, schedule: Q01DX009 (ip), vehicle: gum acacia 98 % of control | dose: 100.0 mg/kg/injection, schedule: Q04DX003 (ip), vehicle: gum acacia 95 % of control | dose: 200.0 mg/kg/injection, schedule: Q01DX009 (ip), vehicle: gum acacia 97 % of control | dose: 200.0 mg/kg/injection, schedule: Q04DX003 (ip), vehicle: gum acacia 96 % of control | dose: 400.0 mg/kg/injection, schedule: Q01DX009 (ip), vehicle: gum acacia 103 % of control | dose: 400.0 mg/kg/injection, schedule: Q04DX003 (ip), vehicle: gum acacia 95 % of control

C=CCOC(=O)N[C@H](CC(C)C)C(N)=O
inactive: dose: 100.0 mg/kg/injection, schedule: Q01DX001 (ip), vehicle: other 94 % of control | dose: 200.0 mg/kg/injection, schedule: Q01DX001 (ip), vehicle: other 110 % of control | dose: 400.0 mg/kg/injection, schedule: Q01DX001 (ip), vehicle: other 100 % of control

Cc1ccc(S(=O)(=O)OCC2Oc3ccccc3O2)cc1
inactive: dose: 75.0 mg/kg/injection, schedule: Q04DX003 (ip), vehicle: Klucel (hydroxypropylcellulose) (HPC) 93 % of control | dose: 150.0 mg/kg/injection, schedule: Q04DX003 (ip), vehicle: Klucel (hydroxypropylcellulose) (HPC) 107 % of control | dose: 300.0 mg/kg/injection, schedule: Q04DX003 (ip), vehicle: Klucel (hydroxypropylcellulose) (HPC) 100 % of control

CNC(=O)C1C2C=CC(C2)C1C(=O)NC (stereo not drawn)
inactive: [8] 93 % of control and 100 % of control and 87 % of control | [9] 96 % of control and 100 % of control and 106 % of control | [10] 93 % of control and 100 % of control (2×)

Fc1ccc(CC(F)(F)F)cc1
inactive: [1] 97 % of control | [2] 105 % of control | [3] 98 % of control

CNC(=O)C(C)(C)c1ccccc1
inactive: [11] 97 % of control | [12] 96 % of control | [13] 95 % of control | [14] 95 % of control | [15] 97 % of control | [16] 95 % of control

O=C(CSCc1ccc([N+](=O)[O-])cc1)c1ccc(Br)cc1
inactive: [17] 92 % of control | [18] 95 % of control | dose: 400.0 mg/kg/injection, schedule: Q01DX001 (ip), vehicle: saline 92 % of control

CC/C(C)=N\NC(=O)CC(=O)N/N=C(/C)CC
inactive: [11] 95 % of control | [13] 101 % of control | [15] 100 % of control

CCCCOC(=O)NC/C(Br)=C/Br
inactive: [11] 96 % of control | [12] 100 % of control | [13] 94 % of control | [14] 96 % of control | [15] 91 % of control | [16] 105 % of control

Cc1ccc2c(c1)Nc1ccccc1C(=O)N2
inactive: [11] 98 % of control | [13] 93 % of control | [15] 91 % of control

CCCCCCCCCCN1CCC(N2CCCCC2)CC1
inactive: dose: 25.0 mg/kg/injection, schedule: Q04DX002 (ip), vehicle: saline 102 % of control | dose: 50.0 mg/kg/injection, schedule: Q04DX002 (ip), vehicle: saline 102 % of control | dose: 100.0 mg/kg/injection, schedule: Q04DX002 (ip), vehicle: saline 98 % of control and 91 % of control

CCCCCCCCCCCCCCCC(=O)Nc1cccc2c[n+](CC(=O)c3ccc(NC(=O)CCC(=O)OC)cc3)ccc12
inactive: [19] 87 % of control | [20] 91 % of control | [10] 94 % of control

O=C(Nc1cccc(C2=NCCN2)c1)c1ccc(C(=O)Nc2cccc(C3=NCCN3)c2)c([N+](=O)[O-])c1
inactive: dose: 1.25 mg/kg/injection, schedule: Q01DX Z (ip), vehicle: saline 93 % of control | dose: 2.5 mg/kg/injection, schedule: Q01DX Z (ip), vehicle: saline 90 % of control | dose: 5.0 mg/kg/injection, schedule: Q01DX Z (ip), vehicle: saline 86 % of control

O=C(O)CCC(=O)Nc1ccc(Cl)cc1
inactive: [8] 97 % of control | [9] 94 % of control | [10] 86 % of control

Cc1ccc(C(N)=O)cn1
inactive: [19] 104 % of control | [21] 104 % of control | [9] 107 % of control | [20] 101 % of control | [10] 97 % of control

CC1(O)C(=O)C=Cc2ccccc21 (stereo not drawn)
inactive: [5] 93 % of control | [6] 102 % of control | [7] 96 % of control

Nc1nc(NCCCc2ccccc2)c(N=Nc2ccccc2)c(=O)[nH]1
inactive: [1] 106 % of control | [19] 98 % of control and 100 % of control | dose: 100.0 mg/kg/injection, schedule: Q04DX002 (ip), vehicle: saline with Tween-80 94 % of control | [2] 107 % of control | [21] 93 % of control and 98 % of control | dose: 200.0 mg/kg/injection, schedule: Q04DX002 (ip), vehicle: saline with Tween-80 93 % of control and 89 % of control | [9] 86 % of control | [3] 104 % of control | dose: 400.0 mg/kg/injection, schedule: Q04DX002 (ip), vehicle: saline with Tween-80 94 % of control and 89 % of control | [10] 86 % of control

CC1CN1N (stereo not drawn)
inactive: dose: 25.0 mg/kg/injection, schedule: Q01DX009 (ip), vehicle: saline 101 % of control | dose: 50.0 mg/kg/injection, schedule: Q01DX009 (ip), vehicle: saline 101 % of control | dose: 50.0 mg/kg/injection, schedule: Q04DX003 (ip), vehicle: saline 109 % of control | [17] 105 % of control | dose: 100.0 mg/kg/injection, schedule: Q01DX009 (ip), vehicle: saline 98 % of control | [4] 103 % of control | [18] 105 % of control

CCC1CCCCC1=O (stereo not drawn)
inactive: [19] 98 % of control | [8] 110 % of control | [21] 97 % of control | [9] 111 % of control | [20] 101 % of control | [10] 94 % of control

CCCCCCCCCCCCCCCCOc1ccc(C(C)(C)C)cc1
inactive: [5] 93 % of control | [6] 93 % of control | [7] 93 % of control

CC(=O)CC(=O)Nc1cccnc1
inactive: dose: 100.0 mg/kg/injection, schedule: Q01DX001 (ip), vehicle: carboxymethylcellulose (CMC) 100 % of control | dose: 200.0 mg/kg/injection, schedule: Q01DX001 (ip), vehicle: carboxymethylcellulose (CMC) 96 % of control | dose: 400.0 mg/kg/injection, schedule: Q01DX001 (ip), vehicle: carboxymethylcellulose (CMC) 100 % of control

COC(=O)C1OC1(C)c1ccc(C)cc1 (stereo not drawn)
inactive: [19] 92 % of control | [20] 106 % of control
